Measurements: paper PMC7616161 (ACS chemical neuroscience, 2020)
Changes are numbered by the printed parent chain.

How the values were obtained:
Type in all cases: cell-based
[1] = target: T1, hM1 WT mAChR (M1 muscarinic acetylcholine receptor) (Homo sapiens, UniProt P11229); test: whole-cell [3H]NMS inhibition binding, allosteric ternary complex model
T1 sequence (P11229 1-460): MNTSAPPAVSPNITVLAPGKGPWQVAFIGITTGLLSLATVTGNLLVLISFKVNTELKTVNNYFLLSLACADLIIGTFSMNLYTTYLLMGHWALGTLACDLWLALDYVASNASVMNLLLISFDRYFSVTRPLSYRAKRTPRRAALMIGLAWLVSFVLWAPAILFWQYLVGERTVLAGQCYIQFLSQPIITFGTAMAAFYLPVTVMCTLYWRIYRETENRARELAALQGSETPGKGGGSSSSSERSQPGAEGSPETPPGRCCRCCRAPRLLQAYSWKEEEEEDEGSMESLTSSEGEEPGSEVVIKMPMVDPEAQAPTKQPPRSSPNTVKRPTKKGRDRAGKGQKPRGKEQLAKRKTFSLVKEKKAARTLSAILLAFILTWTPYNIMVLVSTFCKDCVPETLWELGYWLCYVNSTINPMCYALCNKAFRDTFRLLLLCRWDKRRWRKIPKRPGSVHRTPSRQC

[2] = target: T1, hM1 WT mAChR (M1 muscarinic acetylcholine receptor); test: IP1 accumulation; conditions: for pEC50^b / IP1 / M1WT: […] h, […] °C, pH […]
[3] = target: T2, hM1 WT mAChR (M1 muscarinic acetylcholine receptor) (Homo sapiens, UniProt P11229, Y106C/A196G); test: whole-cell [3H]NMS inhibition binding, allosteric ternary complex model; conditions: M1 DREADD, printed as Y3.[…] and A5.[…]; HBSS, […] HEPES pH […]; allosteric
T2 sequence (P11229 1-460 Y106C/A196G): T1 sequence (P11229 1-460) with Y106C, A196G

[4] = target: T3, hM1 WT mAChR (M1 muscarinic acetylcholine receptor) (Homo sapiens, UniProt P11229, A196G/Y106C); test: as above
T3 sequence (P11229 1-460 Y106C/A196G): T1 sequence (P11229 1-460) with Y106C, A196G

[5] = target: T1, hM1 WT mAChR (M1 muscarinic acetylcholine receptor); test: cell-based
[6] = target: T3, hM1 WT mAChR (M1 muscarinic acetylcholine receptor); test: IP1 accumulation
[7] = target: T3, hM1 WT mAChR (M1 muscarinic acetylcholine receptor); test: cell-based
[8] = target: T2, hM1 WT mAChR (M1 muscarinic acetylcholine receptor); test: cell-based

Structure (SMILES): Cn1cc(-c2ccc(COc3ccccc3-c3cc(=O)n(C4CCCCC4O)cn3)cc2)cn1 (stereo not drawn) [MIPS1780, 3-(2-hydroxycyclohexyl)-6-(2-((4-(1-methyl-1H-pyrazol-4-yl)-benzyl)oxy)phenyl)-pyrimidin-4(3H)-one]
- pKI^b (nH)^c / M1WT ([1]; HBSS, […] HEPES pH […], allosteric): 6.0 ± 0.10
- pEC50^b / IP1 / M1WT ([2]; allosteric agonist, no ACh added): 6.86 ± 0.19
- pKI^b (nH)^c / M1DREADD [3]: 5.3 ± 0.09

Structure (SMILES): Cc1cnc(C(=O)N[C@H]2CCOC[C@@H]2O)cc1Cc1ccc(-c2cscn2)cc1 [PF-06767832, N-((3R,4S)-3-hydroxytetrahydro-2H-pyran-4-yl)-5-methyl-4-(4-(thiazol-4-yl)benzyl)pyridine-2-carboxamide]
- Ki [1]: 501 nM
- EC50 [2]: 12.9 nM
- Ki [4]: 5010 nM

Structure (SMILES): O=C(N[C@H]1CCCC[C@@H]1O)[C@H]1CN(Cc2ccc(-n3cccn3)cc2)c2ccccc2O1 [VU0486846, (2R)-N-[(1S,2S)-2-hydroxycyclohexyl]-4-[(4-pyrazol-1-ylphenyl)-methyl]-2,3-dihydro-1,4-benzoxazine-2-carboxamide]
- Ki [1]: 794 nM
- EC50 [2]: 372 nM
- Ki [4]: 25100 nM

Structure (SMILES): C[N+]1([O-])CCN(C2=Nc3cc(Cl)ccc3Nc3ccccc32)CC1 [CNO]
- Ki [5]: 12600 nM
- EC50 [6]: 5.37 nM
- Ki [7]: 126 nM

Structure (SMILES): O=C1CCCN1CC#CCN1CCCC1 [oxotremorine]
- pKI^b (nH)^c / M1WT [5]: 6.0 ± 0.04
- pEC50^b / IP1 / M1WT ([2]; orthosteric agonist): 7.68 ± 0.12
- pKI^b (nH)^c / M1DREADD [8]: 4.3 ± 0.05
